Data set [1] in a line: Solubility of drugs within HFA 227 with ethanol addition.
The nature of data set [2]: Solubility of drugs within HFA 134a with ethanol addition.
Data set [3] in a line: Solubility of suspension stabilisers in HFA 134a or HFA 227 with ethanol and additives. Format: physicochemical. As to the method:
Trehalose has been determined to be insoluble (observed to be <0.12 μg/50 μl) in HFA 134a or HFA 227 with up to 12% w/w ethanol and only slightly soluble in 30% w/w ethanol (3.3 μg/[…] in HFA 134a, 2.7 μg/50 μl in HFA 227).
Leucine has been determined to be insoluble (observed to be <0.08 μg/50 μl) in HFA 134a or HFA 227 with up to 30% w/w ethanol.

SMILES strings stand for the structures. Bounds are passed on as bounds.

For the molecule `CCCC1O[C@@H]2C[C@H]3[C@@H]4CCC5=CC(=O)C=C[C@]5(C)[C@H]4[C@@H](O)C[C@]3(C)[C@]2(C(=O)CO)O1` (some centres unmarked) [Budesonide], the “Solubility within HFA 227” value in data set [1] (EtOH addition 0 % w/w) is reported as 1.66 μg per 50 μl; in data set [1] (EtOH addition 1 % w/w) it was 5.61 μg per 50 μl; in data set [1] (EtOH addition 5 % w/w), 45.16 μg per 50 μl.

Take `CCC(=O)O[C@]1(C(=O)SCF)[C@H](C)C[C@H]2[C@@H]3C[C@H](F)C4=CC(=O)C=C[C@]4(C)[C@@]3(F)[C@@H](O)C[C@@]21C` [Fluticasone Propionate]: the “Solubility within HFA 227” value in data set [1] (EtOH addition 0 % w/w) is on record as 0.22 μg per 50 μl; in data set [1] (EtOH addition 0.2 % w/w) it was 0.23 μg per 50 μl; in data set [1] (EtOH addition 1 % w/w), 0.83 μg per 50 μl; in data set [1] (EtOH addition 5 % w/w) it was 4.78 μg per 50 μl.

Turning to `COc1ccc(CC(C)NCC(O)c2ccc(O)c(NC=O)c2)cc1` (centres unmarked) [Formoterol], the “Solubility within HFA 227” value in data set [1] (EtOH addition 0 % w/w) is reported as 0.00 μg per 50 μl; in data set [1] (EtOH addition 1 % w/w), 0.02 μg per 50 μl; in data set [1] (EtOH addition 5 % w/w), 0.23 μg per 50 μl. Besides, the “Solubility within HFA 134a” value in data set [2] (EtOH addition 0 % w/w) was 0.00 μg per 50 μl; in data set [2] (EtOH addition 1 % w/w) it was 0.03 μg per 50 μl; in data set [2] (EtOH addition 5 % w/w) it was 0.73 μg per 50 μl.

Turning to `CC(C)C[C@H](N)C(=O)O` [Leucine], the Solubility in data set [3] (3% w/w ethanol with 0.5% w/w propylene glycol or 0.01% w/w oleic acid, HFA 134a or HFA 227) is reported as below 0.08 μg/50 μl; in data set [3] (12% w/w ethanol with 1.2% w/w water, HFA 134a or HFA 227) it was below 0.08 μg/50 μl; in data set [3] (HFA 134a or HFA 227 with up to 30% w/w ethanol), below 0.08 μg/50 μl.

On to `C[N+]1(C)[C@@H]2C[C@@H](OC(=O)C(O)(c3cccs3)c3cccs3)C[C@H]1[C@@H]1O[C@@H]12` [Tiotropium Bromide], for which the “Solubility within HFA 227” value worked out at 0.00 μg per 50 μl in data set [1] (EtOH addition 0 % w/w), 0.00 μg per 50 μl in data set [1] (EtOH addition 1 % w/w) and 0.07 μg per 50 μl in data set [1] (EtOH addition 5 % w/w). Moreover, the “Solubility within HFA 134a” value is recorded as 0.00 μg per 50 μl in data set [2] (EtOH addition 0 % w/w), 0.01 μg per 50 μl in data set [2] (EtOH addition 1 % w/w) and 0.33 μg per 50 μl in data set [2] (EtOH addition 5 % w/w).

As for `OC[C@H]1O[C@H](O[C@H]2O[C@H](CO)[C@@H](O)[C@H](O)[C@H]2O)[C@H](O)[C@@H](O)[C@@H]1O` [Trehalose], the Solubility in data set [1] (30% w/w ethanol in HFA 227) worked out at 2.7 μg/50 μl.

These data come from patent US20130142879A1, “SUSPENSION FORMULATIONS” (INNOVATA BIOMED LIMITED, priority 2008, published 2013).
